Assay results from ChEMBL document CHEMBL3991601, “The target landscape of clinical kinase drugs” (Science, 2017).
The source made the active and inactive calls. For most assays here, no stated cut-off is given here; in the data, actives have a measured Kd and inactives only a lower limit.

Experiments:
[1] = molecular target: Cyclin-dependent kinase 17 (Homo sapiens, UniProt Q00537)
[2] = molecular target: ATP-dependent RNA helicase DDX3X (Homo sapiens, UniProt O00571)
[3] = molecular target: T1, Serine/threonine-protein kinase LATS1 (Homo sapiens, UniProt O95835)
T1 sequence (O95835 whole entry): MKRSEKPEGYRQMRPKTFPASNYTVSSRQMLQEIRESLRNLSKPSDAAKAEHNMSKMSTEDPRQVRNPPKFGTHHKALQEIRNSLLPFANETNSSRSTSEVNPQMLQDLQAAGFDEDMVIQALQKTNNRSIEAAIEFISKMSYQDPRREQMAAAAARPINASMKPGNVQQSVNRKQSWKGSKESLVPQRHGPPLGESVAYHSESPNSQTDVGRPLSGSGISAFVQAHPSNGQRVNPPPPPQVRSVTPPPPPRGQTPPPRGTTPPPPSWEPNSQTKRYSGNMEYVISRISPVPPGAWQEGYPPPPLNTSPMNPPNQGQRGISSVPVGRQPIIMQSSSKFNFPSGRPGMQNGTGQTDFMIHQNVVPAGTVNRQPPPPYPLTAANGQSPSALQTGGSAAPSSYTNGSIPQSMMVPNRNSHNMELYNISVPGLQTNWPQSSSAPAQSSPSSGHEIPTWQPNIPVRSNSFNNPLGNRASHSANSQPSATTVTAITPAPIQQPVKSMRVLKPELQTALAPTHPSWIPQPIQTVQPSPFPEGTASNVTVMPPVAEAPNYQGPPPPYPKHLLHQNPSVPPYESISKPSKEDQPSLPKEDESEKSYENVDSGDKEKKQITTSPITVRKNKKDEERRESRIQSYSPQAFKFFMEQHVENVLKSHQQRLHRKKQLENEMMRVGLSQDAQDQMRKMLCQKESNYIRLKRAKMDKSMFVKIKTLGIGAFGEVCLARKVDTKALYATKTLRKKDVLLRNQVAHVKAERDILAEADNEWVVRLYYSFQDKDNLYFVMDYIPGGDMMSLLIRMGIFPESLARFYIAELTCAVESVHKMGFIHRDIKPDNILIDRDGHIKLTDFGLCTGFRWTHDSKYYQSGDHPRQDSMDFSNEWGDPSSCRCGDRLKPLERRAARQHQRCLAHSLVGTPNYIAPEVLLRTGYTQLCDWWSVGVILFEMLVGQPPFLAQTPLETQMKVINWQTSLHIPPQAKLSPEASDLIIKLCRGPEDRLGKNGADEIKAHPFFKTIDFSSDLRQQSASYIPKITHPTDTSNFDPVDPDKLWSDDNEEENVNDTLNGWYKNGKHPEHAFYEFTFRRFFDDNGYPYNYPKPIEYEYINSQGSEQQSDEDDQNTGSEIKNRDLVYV

LIM domain kinase 2 = LIM domain kinase 2 (Homo sapiens, UniProt P53671)
[4] = molecular target: Mitogen-activated protein kinase kinase kinase kinase 1 (Homo sapiens, UniProt Q92918)
[5] = molecular target: MAP kinase-activated protein kinase 2 (Homo sapiens, UniProt P49137)
[6] = molecular target: Myosin light chain kinase, smooth muscle (Homo sapiens, UniProt Q15746)
[7] = molecular target: Proto-oncogene tyrosine-protein kinase receptor Ret (Homo sapiens, UniProt P07949)
[8] = molecular target: U5 small nuclear ribonucleoprotein 200 kDa helicase (Homo sapiens, UniProt O75643)
[9] = molecular target: T2, Serine/threonine-protein kinase 3 (Homo sapiens, UniProt Q13188)
T2 sequence (Q13188 whole entry): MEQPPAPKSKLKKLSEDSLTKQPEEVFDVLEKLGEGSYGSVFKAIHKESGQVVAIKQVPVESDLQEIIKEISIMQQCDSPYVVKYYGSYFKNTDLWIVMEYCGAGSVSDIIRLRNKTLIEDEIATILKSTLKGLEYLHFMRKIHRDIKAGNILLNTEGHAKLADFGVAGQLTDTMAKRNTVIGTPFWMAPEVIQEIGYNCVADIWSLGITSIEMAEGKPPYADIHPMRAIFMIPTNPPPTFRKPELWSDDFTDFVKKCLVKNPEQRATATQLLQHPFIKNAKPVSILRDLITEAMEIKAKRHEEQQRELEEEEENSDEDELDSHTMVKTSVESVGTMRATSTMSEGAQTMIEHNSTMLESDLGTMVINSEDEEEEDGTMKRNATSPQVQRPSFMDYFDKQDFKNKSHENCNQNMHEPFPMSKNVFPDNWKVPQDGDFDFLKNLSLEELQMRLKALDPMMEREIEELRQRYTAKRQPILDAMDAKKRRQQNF

[10] = molecular target: T3, General transcription and DNA repair factor IIH helicase subunit XPD (Homo sapiens, UniProt P18074); settings: read-out: Kd apparent; k-562, colo 205, sk-n-be(2) and mv-4-11
T3 sequence (P18074 whole entry): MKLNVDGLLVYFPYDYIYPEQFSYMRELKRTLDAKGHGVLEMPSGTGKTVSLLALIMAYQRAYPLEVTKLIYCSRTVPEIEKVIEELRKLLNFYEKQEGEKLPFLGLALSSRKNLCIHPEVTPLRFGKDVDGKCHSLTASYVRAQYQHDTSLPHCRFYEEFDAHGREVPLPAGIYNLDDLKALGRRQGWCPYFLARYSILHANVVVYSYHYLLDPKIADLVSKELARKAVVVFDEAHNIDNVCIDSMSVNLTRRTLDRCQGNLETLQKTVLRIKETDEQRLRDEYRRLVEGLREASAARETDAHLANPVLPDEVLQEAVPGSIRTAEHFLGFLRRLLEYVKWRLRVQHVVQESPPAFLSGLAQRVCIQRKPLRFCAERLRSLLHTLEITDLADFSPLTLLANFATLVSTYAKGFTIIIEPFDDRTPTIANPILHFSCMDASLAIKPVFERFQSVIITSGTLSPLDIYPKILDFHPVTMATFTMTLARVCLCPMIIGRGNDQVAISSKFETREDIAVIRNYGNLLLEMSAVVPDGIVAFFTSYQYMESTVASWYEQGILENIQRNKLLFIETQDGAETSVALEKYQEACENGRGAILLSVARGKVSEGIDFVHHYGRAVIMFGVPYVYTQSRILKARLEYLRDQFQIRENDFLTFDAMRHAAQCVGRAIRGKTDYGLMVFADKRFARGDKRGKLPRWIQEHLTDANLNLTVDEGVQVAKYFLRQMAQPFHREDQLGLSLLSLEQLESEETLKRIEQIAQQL

Chain of Cyclin-dependent kinase 17 (Q00537 whole entry): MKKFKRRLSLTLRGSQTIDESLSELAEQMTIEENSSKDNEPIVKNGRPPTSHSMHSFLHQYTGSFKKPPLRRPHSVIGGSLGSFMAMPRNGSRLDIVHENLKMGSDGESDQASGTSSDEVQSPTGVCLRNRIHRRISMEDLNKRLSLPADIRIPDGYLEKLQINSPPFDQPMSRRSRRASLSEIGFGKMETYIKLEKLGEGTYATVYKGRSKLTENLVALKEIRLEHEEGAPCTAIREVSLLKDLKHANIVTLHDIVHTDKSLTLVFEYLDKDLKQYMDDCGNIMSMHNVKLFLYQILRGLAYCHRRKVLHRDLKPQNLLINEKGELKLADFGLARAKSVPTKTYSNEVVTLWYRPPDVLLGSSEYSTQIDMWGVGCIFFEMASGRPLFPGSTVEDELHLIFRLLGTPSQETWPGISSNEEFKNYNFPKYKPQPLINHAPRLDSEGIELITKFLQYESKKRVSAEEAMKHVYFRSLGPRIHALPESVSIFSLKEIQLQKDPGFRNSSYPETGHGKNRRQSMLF
Chain of Proto-oncogene tyrosine-protein kinase receptor Ret (P07949 whole entry): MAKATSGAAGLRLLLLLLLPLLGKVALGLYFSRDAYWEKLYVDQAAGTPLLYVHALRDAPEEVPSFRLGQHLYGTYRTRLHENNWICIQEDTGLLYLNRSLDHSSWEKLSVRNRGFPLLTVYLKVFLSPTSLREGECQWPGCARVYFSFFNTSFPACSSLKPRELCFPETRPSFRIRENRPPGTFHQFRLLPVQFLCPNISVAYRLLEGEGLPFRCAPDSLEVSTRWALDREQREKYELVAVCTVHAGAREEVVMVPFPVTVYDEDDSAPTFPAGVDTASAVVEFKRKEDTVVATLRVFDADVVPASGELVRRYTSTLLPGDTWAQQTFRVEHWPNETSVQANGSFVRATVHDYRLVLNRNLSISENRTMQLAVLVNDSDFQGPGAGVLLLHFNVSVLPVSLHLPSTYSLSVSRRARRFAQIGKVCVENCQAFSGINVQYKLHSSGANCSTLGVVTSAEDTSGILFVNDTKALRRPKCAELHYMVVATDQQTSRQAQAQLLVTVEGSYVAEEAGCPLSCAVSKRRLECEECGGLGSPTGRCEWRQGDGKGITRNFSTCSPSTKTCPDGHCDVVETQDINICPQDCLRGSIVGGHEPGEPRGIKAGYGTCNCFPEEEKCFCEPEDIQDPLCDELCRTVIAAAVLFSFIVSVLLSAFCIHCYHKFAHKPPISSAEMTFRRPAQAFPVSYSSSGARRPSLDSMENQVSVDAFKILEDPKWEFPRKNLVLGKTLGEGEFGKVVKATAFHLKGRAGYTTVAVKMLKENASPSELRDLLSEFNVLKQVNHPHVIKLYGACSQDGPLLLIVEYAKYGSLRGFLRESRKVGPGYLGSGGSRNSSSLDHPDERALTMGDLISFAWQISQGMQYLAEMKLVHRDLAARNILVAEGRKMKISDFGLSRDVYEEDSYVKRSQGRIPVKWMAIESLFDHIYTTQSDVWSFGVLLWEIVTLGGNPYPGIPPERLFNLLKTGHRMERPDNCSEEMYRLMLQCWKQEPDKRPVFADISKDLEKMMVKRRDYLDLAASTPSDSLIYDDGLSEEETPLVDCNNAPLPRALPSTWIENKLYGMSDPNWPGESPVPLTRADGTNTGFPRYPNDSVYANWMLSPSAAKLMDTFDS
Chain of LIM domain kinase 2 (P53671 whole entry, the tested form may be a part): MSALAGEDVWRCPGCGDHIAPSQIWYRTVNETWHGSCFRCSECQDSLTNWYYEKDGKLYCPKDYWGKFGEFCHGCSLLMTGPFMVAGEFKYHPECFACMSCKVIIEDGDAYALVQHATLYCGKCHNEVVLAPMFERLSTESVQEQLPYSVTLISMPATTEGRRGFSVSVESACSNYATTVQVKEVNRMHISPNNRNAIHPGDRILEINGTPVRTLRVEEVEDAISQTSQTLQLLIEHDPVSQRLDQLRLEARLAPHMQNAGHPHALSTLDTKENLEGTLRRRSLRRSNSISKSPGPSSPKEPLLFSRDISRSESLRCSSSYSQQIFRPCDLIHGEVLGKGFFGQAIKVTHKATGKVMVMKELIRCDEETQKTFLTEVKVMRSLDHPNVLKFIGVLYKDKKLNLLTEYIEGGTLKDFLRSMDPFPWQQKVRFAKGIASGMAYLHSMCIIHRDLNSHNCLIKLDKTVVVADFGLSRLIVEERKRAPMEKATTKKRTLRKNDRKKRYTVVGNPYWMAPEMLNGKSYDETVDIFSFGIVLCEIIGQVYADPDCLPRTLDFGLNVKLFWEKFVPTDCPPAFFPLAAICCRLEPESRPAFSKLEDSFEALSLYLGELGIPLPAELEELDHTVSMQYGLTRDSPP
Chain of Mitogen-activated protein kinase kinase kinase kinase 1 (Q92918 whole entry): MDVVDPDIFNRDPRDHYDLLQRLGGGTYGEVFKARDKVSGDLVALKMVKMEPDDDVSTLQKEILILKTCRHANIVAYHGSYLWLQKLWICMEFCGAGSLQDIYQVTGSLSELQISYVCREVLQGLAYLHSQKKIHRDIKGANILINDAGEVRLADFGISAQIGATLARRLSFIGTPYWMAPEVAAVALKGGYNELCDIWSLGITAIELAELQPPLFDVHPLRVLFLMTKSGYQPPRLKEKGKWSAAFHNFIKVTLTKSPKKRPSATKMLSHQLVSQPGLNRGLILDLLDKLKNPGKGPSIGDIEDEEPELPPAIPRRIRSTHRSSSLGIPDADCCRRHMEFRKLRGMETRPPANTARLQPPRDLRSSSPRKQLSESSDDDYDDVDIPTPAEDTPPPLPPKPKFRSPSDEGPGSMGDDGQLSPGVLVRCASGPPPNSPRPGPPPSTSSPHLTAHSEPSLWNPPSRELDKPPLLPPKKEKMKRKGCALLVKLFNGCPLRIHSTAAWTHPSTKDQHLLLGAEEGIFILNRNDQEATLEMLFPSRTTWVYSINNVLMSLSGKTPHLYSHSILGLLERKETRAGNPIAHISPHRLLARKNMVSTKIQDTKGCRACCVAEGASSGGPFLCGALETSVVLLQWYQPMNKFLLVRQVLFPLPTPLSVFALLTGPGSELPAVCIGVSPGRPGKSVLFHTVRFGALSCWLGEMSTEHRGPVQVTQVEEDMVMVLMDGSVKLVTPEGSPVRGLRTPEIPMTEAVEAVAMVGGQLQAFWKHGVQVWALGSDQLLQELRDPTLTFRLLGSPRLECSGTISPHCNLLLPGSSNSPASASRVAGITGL
Chain of Myosin light chain kinase, smooth muscle (Q15746 whole entry): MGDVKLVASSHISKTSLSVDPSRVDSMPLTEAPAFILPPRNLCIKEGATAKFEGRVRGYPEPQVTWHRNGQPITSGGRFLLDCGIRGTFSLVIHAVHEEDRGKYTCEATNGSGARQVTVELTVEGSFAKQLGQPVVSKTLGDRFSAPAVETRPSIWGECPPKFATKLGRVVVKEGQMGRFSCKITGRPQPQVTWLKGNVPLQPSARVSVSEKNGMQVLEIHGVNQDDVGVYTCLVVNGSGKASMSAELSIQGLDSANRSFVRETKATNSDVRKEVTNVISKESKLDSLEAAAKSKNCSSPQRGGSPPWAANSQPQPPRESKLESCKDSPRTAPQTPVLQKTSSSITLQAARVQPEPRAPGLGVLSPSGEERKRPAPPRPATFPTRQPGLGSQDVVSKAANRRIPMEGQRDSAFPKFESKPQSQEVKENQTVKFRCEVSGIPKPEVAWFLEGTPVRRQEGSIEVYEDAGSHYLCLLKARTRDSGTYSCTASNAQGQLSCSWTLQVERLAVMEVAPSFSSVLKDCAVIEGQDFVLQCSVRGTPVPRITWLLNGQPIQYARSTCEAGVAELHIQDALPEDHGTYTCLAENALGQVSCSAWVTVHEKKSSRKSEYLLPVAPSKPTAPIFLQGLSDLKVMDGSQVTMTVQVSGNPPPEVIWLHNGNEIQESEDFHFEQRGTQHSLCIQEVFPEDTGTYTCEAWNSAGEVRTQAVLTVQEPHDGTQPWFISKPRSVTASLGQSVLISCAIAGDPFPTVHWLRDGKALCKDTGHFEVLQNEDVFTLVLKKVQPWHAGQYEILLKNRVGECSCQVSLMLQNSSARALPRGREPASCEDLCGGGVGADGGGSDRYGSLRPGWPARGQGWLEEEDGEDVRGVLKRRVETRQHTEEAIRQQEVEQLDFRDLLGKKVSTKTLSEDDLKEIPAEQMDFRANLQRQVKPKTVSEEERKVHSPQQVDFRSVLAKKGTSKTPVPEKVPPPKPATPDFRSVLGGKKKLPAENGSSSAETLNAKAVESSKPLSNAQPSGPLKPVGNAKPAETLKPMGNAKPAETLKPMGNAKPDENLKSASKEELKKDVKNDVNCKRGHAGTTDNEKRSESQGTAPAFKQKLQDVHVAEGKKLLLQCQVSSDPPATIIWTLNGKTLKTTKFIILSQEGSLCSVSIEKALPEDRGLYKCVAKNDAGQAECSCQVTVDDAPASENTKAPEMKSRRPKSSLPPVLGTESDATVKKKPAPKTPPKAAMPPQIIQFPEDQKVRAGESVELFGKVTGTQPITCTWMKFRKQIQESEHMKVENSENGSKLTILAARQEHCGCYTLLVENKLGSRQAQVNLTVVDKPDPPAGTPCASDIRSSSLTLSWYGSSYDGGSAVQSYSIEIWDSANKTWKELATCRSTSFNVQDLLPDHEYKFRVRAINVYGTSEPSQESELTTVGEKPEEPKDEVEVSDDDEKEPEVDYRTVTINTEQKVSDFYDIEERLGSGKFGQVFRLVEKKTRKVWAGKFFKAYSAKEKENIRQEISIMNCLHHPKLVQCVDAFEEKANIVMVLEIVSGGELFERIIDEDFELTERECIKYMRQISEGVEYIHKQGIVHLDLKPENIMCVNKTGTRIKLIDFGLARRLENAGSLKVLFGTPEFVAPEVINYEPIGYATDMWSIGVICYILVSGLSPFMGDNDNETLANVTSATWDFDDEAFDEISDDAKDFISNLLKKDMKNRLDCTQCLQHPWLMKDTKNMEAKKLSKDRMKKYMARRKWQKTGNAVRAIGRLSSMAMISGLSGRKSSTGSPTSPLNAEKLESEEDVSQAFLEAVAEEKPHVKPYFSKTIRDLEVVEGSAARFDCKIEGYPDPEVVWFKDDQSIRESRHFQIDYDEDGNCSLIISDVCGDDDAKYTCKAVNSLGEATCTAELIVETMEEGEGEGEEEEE

| Kd [1] | Kd [2] | Kd [3] | Kd (LIM domain kinase 2) | Kd [4] | Kd [5] | Kd [6] | Kd [7] | Kd [8] | Kd [9] | Kd [10] | SMILES |
| --- | --- | --- | --- | --- | --- | --- | --- | --- | --- | --- | --- |
| 0.005 µM | > 30 µM (inactive) | > 30 µM (inactive) | > 30 µM (inactive) | 0.015 µM (active) | > 30 µM (inactive) | > 30 µM (inactive) | 0.009 µM (active) | > 30 µM (inactive) | 0.462 µM (active) | 0.953 µM (active) | CC(C)c1cc(CNc2nc(Nc3cc(C4CC4)[nH]n3)cc(N3CCN(C)CC3)n2)on1 [XL-228] |
| > 30 µM (inactive) | > 30 µM (inactive) | > 30 µM (inactive) | > 30 µM (inactive) | > 30 µM (inactive) | > 30 µM (inactive) | > 30 µM (inactive) | > 30 µM (inactive) | > 30 µM (inactive) | > 30 µM (inactive) | > 30 µM (inactive) | C[C@@H](N)c1ccc(C(=O)Nc2ccnc3[nH]ccc23)cc1 [Y-39983] |
| > 30 µM (inactive) | > 30 µM (inactive) | > 30 µM (inactive) | > 30 µM (inactive) | > 30 µM (inactive) | > 30 µM (inactive) | > 30 µM (inactive) | 21.9 µM | > 30 µM (inactive) | 0.311 µM (active) | 0.319 µM | CN1C/C=C/CCOc2cccc(c2)-c2ccnc(n2)Nc2cccc(c2)C1 [ZOTIRACICLIB] |

| SMILES | Kd [1] | Kd [2] | Kd [3] | Kd (LIM domain kinase 2) | Kd [4] | Kd [5] | Kd [6] | Kd [7] | Kd [8] | Kd [9] | Kd [10] |
| --- | --- | --- | --- | --- | --- | --- | --- | --- | --- | --- | --- |
| Cc1cc(Nc2ncnc3ccc(NC4=NC(C)(C)CO4)cc23)ccc1Oc1ccn2ncnc2c1 [TUCATINIB] | > 30 µM (inactive) | > 30 µM (inactive) | > 30 µM (inactive) | > 30 µM (inactive) | > 30 µM (inactive) | > 30 µM (inactive) | > 30 µM (inactive) | > 30 µM (inactive) | > 30 µM (inactive) | > 30 µM (inactive) | > 30 µM (inactive) |
